# Source: PubChem BioAssay (NCI)
#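 Cultured in 96-well plates, cells were exposed to test compound for 48 hours across five concentrations. TGI marks complete inhibition of growth.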
# Experiments:
# Experiment in all cases: growth of human tumour cells (NCI), 48 h
# LOX IMVI melanoma = test system: LOX IMVI melanoma
# KM12 colon = test system: KM12 colon
# BT-549 breast = test system: BT-549 breast
# HCT-15 colon = test system: HCT-15 colon
# COLO 205 colon = test system: COLO 205 colon
# A498 renal = test system: A498 renal
# HOP-92 NSCLC = test system: HOP-92 NSCLC
# SNB-75 CNS = test system: SNB-75 CNS
# NCI-H226 lung = test system: NCI-H226 lung
# PC-3 prostate = test system: PC-3 prostate
# OVCAR-4 ovarian = test system: OVCAR-4 ovarian
# HT29 colon = test system: HT29 colon
Compound,TGI (LOX IMVI melanoma) [µM],TGI (KM12 colon) [µM],TGI (BT-549 breast) [µM],TGI (HCT-15 colon) [µM],TGI (COLO 205 colon) [µM],TGI (A498 renal) [µM],TGI (HOP-92 NSCLC) [µM],TGI (SNB-75 CNS) [µM],TGI (NCI-H226 lung) [µM],TGI (PC-3 prostate) [µM],TGI (OVCAR-4 ovarian) [µM],TGI (HT29 colon) [µM]
NC(=Nc1ccccc1Cl)c1ccccc1N,> 100,> 100,> 100,> 100,> 100,> 100,86.5,> 100,> 100,> 100,> 100,> 100
O=C1C2=Cc3ccccc3OC2(O)Oc2cc3ccccc3cc21 (configuration not stated),> 100,> 100,> 100,> 100,> 100,> 100,> 100,73.2,> 100,> 100,> 100,> 100
CC(C)CCNC(=O)c1ccc(CNC(=O)/C=C/c2cccc(Oc3ccccc3)c2)cc1,> 100,> 100,> 100,> 100,> 100,> 100,> 100,> 100,> 100,> 100,> 100,> 100
COc1ccc2nc(N/N=C/c3sccc3C)cc(C)c2c1,32.9,38.3,32.2,30.5,32.7,26.9,26.4,37.1,42.6,38.7,99.5,24
CNC1(c2cc3ccccc3s2)CCCCC1,40.9,43.1,> 100,> 100,41.9,> 100,61.6,99.3,91.3,55.5,> 100,67.8
C=CCn1c(N)c(C#N)c(C#N)c1CCC,> 100,> 100,> 100,> 100,> 100,> 100,> 100,> 100,> 100,> 100,> 100,> 100
Cc1cccc(Cl)c1NCC(O)CN1CCN(C)CC1 (configuration not stated),> 100,> 100,> 100,> 100,–,> 100,> 100,> 100,> 100,> 100,> 100,> 100
CC1(C)N/C(=C\[N+](=O)[O-])C(C)(C)N1O,> 10,> 10,> 10,> 10,> 10,> 10,> 10,> 10,> 10,> 10,> 10,> 10
CC1(C)[C@@H]2CC[C@]1(C)[C@H](OC(=O)CSC#N)C2,> 100,> 100,> 100,> 100,> 100,> 100,> 100,> 100,> 100,> 100,> 100,> 100
OC(CNc1ccccn1)c1ccccc1 (configuration not stated),> 100,> 100,> 100,> 100,> 100,> 100,> 100,> 100,> 100,> 100,> 100,> 100
COC(=O)c1csc([C@@H](OC(=O)[C@H](C)[C@H](CCCC(C)(Cl)Cl)OC(=O)c2csc([C@H](O)CO)n2)C(C)C)n1,23.5,29.4,31,31,32.3,32.7,23,11,39.7,26.7,24.5,36.8
O=C1OC(CCCN2CCCCC2)(c2ccccc2)CC12CCCC2 (configuration not stated),> 100,> 100,> 100,> 100,> 100,98.4,> 90.8,> 100,> 100,> 100,> 100,> 92
O=c1[nH]c2cc(C(F)(F)F)ccc2nc1C(F)(F)F,> 100,71.2,> 100,> 100,> 100,> 100,45.2,93.6,> 100,97.2,> 100,> 100
Nc1cc([N+](=O)[O-])ccc1C(=O)N1CCC[C@H]1CO,> 100,> 100,> 100,> 100,> 100,> 100,> 100,> 100,> 100,> 100,> 100,> 100
